According to patent EP4700025A1, “AMIDE COMPOUND, PHARMACEUTICAL COMPOSITION COMPRISING SAME, AND USE THEREOF” (Suzhou Genhouse Bio Co., Ltd., priority 2023, dated 2024):

Tests used:
SDMA [1] = experiment: SDMA Inhibition Assay in A549 cells; assay type: cell-based; conditions: Homo sapiens, A549, 96 hours
Protocol: (§1) The next day, the cells were treated with the compounds at different concentrations (with an initial concentration of 10 µM, 5-fold dilution, 9 concentration gradients). After 96 hours, the culture medium was pipetted out and the cells were washed 2 times with 100 µL of PBS. The cells were then fixed with 4% paraformaldehyde and incubated at room temperature for 20 min. The fixative solution was discarded, and the cells were washed with PBS. 150 µL of specialized blocking solution (containing 1% Triton-100) was added to each well for blocking at room temperature for 2 hours, and the plate was washed with PBS to remove excess blocking solution. […] The cells were incubated at 4 °C overnight. The next day, the cells were separately washed 2 times with 1× PBST. […] The cells were incubated at room temperature for 2 hours. The cells were washed 2 times with 1× PBST and 1 time with PBS. Fluorescence signals at 700 nm and 800 nm were separately detected using a Li-COR Odyssey two-color near-infrared laser imager. The inhibition rates were calculated, and the EC50 values were determined by fitting using the GraphPad Prism 7.0 software. Table 3. Inhibition of SDMA by test compounds

A549 = experiment: CCK8 proliferation inhibition, A549; assay type: cell-based; conditions: Homo sapiens, 192 h, CCK8, 8 days after drug treatment
Protocol: (§2) The above normally growing cells were digested with a cell trypsinization solution, centrifuged, counted, and seeded into a 96-well plate at an appropriate cell density (2000 cells/well) at 100 µL/well. The next day after cell seeding, the compounds at different concentrations were added to the wells. Three replicate wells were set for each concentration point, and a corresponding DMSO negative control group was also set. CCK8 solution was added to each well 8 days after drug treatment. The plate was incubated at 37 °C for a period of time (OD450 of the vehicle group reached 1.0 or higher) before the absorbance at 450 nm was read using a microplate reader. The inhibition rates were calculated, and the EC50 values were determined by fitting using the GraphPad Prism 7.0 software. Table 2. EC50 values of compounds at cellular level

SDMA [2] = experiment: SDMA Inhibition Assay in HCT-116 cells; assay type: cell-based; conditions: Homo sapiens, HCT-116, 96 hours
Protocol: as §1

SDMA [3] = experiment: SDMA Inhibition Assay in HCT-116-MTAP^-/- cells; assay type: cell-based; conditions: Homo sapiens, 96 hours
Protocol: as §1

HCT-116 = experiment: CCK8 proliferation inhibition, HCT-116; assay type: cell-based; conditions: Homo sapiens, 192 h, CCK8, 8 days after drug treatment
Protocol: as §2

HCT-116-MTAP^-/- = experiment: CCK8 proliferation inhibition, HCT-116-MTAP^-/-; assay type: cell-based; conditions: Homo sapiens, 192 h; HCT-116-MTAP^-/- (MTAP-deficient); CCK8, 8 days after drug treatment
Protocol: as §2

[4] = Mouse brain-to-blood and tumor tissue-to-blood drug concentration ratio (PC-9 tumor-bearing mice); assay type: in vivo, Balb/c-nude female mice; conditions: 5 mg/kg PO, PC-9 tumor-bearing mice
Protocol: Human lung cancer PC-9 cells were cultured in monolayer in vitro using the 1640 culture medium (HyClone) containing 10% fetal bovine serum (BI) and 1% penicillin and streptomycin (Beyotime) in an incubator at 37 °C with 5% CO2. The cells were digested with trypsin 2 to 3 times weekly for passaging. When the saturation degree of the cells was 80% to 90%, the cells were collected, counted, and inoculated. 5 × 10^6 (0.2 mL, 1:1 gel addition) PC-9 cells were subcutaneously inoculated into the right back of Balb/c-nude female mice, and the mice were used for subsequent PK and tissue distribution experiments after the mean tumor volume reached about 500 mm^3. On the day of administration, mice were weighed for actual body weight and the administration volume was calculated. In each group of 9 mice, the compound was administered by single intravenous injection or oral gavage. Whole blood samples were collected via the orbit at prescribed time points. After the blood sample collection, the samples were immediately transferred to labeled commercial sample tubes containing K2-EDTA (0.85 to 1.15 mg), followed by centrifugation (3200× g, 4 °C, 10 min) and plasma collection. The plasma was transferred to a pre-cooled centrifuge tube, frozen in dry ice, and then stored in an ultra-low temperature freezer at -60 °C or lower until the LC-MS/MS analysis was performed. Tumor and brain tissues were collected after the animals were euthanized using CO2 at prescribed time points, frozen in liquid nitrogen, and stored in an ultra-low temperature freezer at -60 °C or lower until the LC-MS/MS analysis was performed. 20 µL of the plasma sample or brain/tumor tissue homogenate was added to 80 µL of an internal standard solution (a 50 ng/mL solution of propafenone in acetonitrile). The plate was sealed using a film sealer at 165 °C, shaken on a micro oscillator (at the maximum vibration speed) for 10 min, and centrifuged at 4000 rpm for 20 min using a low-speed benchtop centrifuge; 10 µL of the supernatant was transferred and added to 90 µL of acetonitrile. The mixture was vortexed and mixed well, and then the plate was sealed using the film sealer at 165 °C. After the mixture was vortexed and mixed well, 1 µL of the supernatant was subjected to LC-MS/MS analysis.
• Brain-to-blood drug concentration ratio of mice at the same time point = drug concentration in brain tissue/drug concentration in plasma • Tumor tissue-to-blood drug concentration ratio of mice at the same time point = drug concentration in tumor tissue/drug concentration in plasma

EC50 (SDMA [1])	EC50 (A549)	EC50 (SDMA [3])	EC50 (HCT-116)	EC50 (HCT-116-MTAP^-/-)	Structure (SMILES)	EC50 (SDMA [2])	Brain-to-blood drug concentration ratio ([4]; 1 h)	Drug concentration in blood ([4]; 1 h)	Drug concentration in brain ([4]; 1 h)	Drug concentration in tumor tissue ([4]; 1 h)	Tumor tissue-to-blood drug concentration ratio ([4]; 1 h)	Brain-to-blood drug concentration ratio ([4]; 4 h)	Drug concentration in blood ([4]; 4 h)	Drug concentration in brain ([4]; 4 h)	Drug concentration in tumor tissue ([4]; 4 h)	Tumor tissue-to-blood drug concentration ratio ([4]; 4 h)
1.9 nM	38.5 nM	2 nM	411 nM	6.4 nM	Cn1ncc2c(N)nc3cc(F)c(C(=O)N(Cc4ccc5c(c4)OC(F)(F)O5)C[C@H]4COCCO4)cc3c21 [Example I-30]	125 nM										
1.9 nM	27.4 nM	2 nM	389 nM	2.4 nM	CCN(Cc1ccc2c(c1)OC(F)(F)O2)C(=O)c1cc2c(cc1F)nc(N)c1cnn(C)c12 [Example I-6]											
0.6 nM	18.5 nM	1.1 nM	935 nM	5.6 nM	Cn1ncc2c(N)nc3cc(F)c(C(=O)N(Cc4ccc5c(c4)OC(F)(F)O5)[C@@H]4CCOC4)cc3c21 [Example I-22]											
2 nM	36.9 nM	5.3 nM	1200 nM	7.9 nM	CC(C)N(Cc1ccc2c(c1)OC(F)(F)O2)C(=O)c1ccc2nc(N)c3cnn(C)c3c2c1 [Example I-14]	374 nM										
0.3 nM	8.9 nM	0.5 nM	287 nM	2.7 nM	C[C@@H]1COCC(c2ccc3c(c2)OC(F)(F)O3)N1C(=O)c1ccc2nc(N)c3cnn(C)c3c2c1 (some centres unmarked) [Example I-12]											
1.3 nM	28.9 nM	1.8 nM	672 nM	4.2 nM	Cn1ncc2c(N)nc3cc(C#N)c(C(=O)N(Cc4ccc5c(c4)OC(F)(F)O5)C4CC4)cc3c21 [Example I-54]	61.7 nM										
0.8 nM	33 nM	1.4 nM	1320 nM	5.3 nM	Cn1ncc2c(N)nc3cc(F)c(C(=O)N(Cc4ccc5c(c4)OC(F)(F)O5)[C@H]4CCOC4)cc3c21 [Example I-25]	123 nM										
2.7 nM	50.6 nM	2.6 nM	1210 nM	6.1 nM	Cn1ncc2c(N)nc3cc(F)c(C(=O)N(Cc4ccc5c(c4)OC(F)(F)O5)C4COC4)cc3c21 [Example I-29]	292 nM										
0.8 nM	24.4 nM	1 nM	510 nM	4.2 nM	Cn1ncc2c(N)nc3cc(F)c(C(=O)N(Cc4ccc5c(c4)OC(F)(F)O5)C[C@@H]4COCCO4)cc3c21 [Example I-27]	120 nM										
0.8 nM	7.7 nM	1.3 nM		2.1 nM	COCCN(Cc1ccc2c(c1)OC(F)(F)O2)C(=O)c1cc2c(cc1F)nc(N)c1cnn(C)c12 [Example I-23]											
1 nM	8 nM	1.7 nM		3.2 nM	COC[C@@H](C)N(Cc1ccc2c(c1)OC(F)(F)O2)C(=O)c1cc2c(cc1F)nc(N)c1cnn(C)c12 [Example I-24]											

Structure (SMILES)	EC50 (SDMA [1])	EC50 (A549)	EC50 (SDMA [3])	EC50 (HCT-116)	EC50 (HCT-116-MTAP^-/-)	EC50 (SDMA [2])	Brain-to-blood drug concentration ratio ([4]; 1 h)	Drug concentration in blood ([4]; 1 h)	Drug concentration in brain ([4]; 1 h)	Drug concentration in tumor tissue ([4]; 1 h)	Tumor tissue-to-blood drug concentration ratio ([4]; 1 h)	Brain-to-blood drug concentration ratio ([4]; 4 h)	Drug concentration in blood ([4]; 4 h)	Drug concentration in brain ([4]; 4 h)	Drug concentration in tumor tissue ([4]; 4 h)	Tumor tissue-to-blood drug concentration ratio ([4]; 4 h)
Cn1ncc2c(N)nc3cnc(C(=O)N4CCCC[C@@H]4c4ccc5c(c4)OC(F)(F)O5)cc3c21 [Example I-111]	1.6 nM	77 nM	1 nM	2170 nM	15 nM	254 nM										
Cn1ncc2c(N)nc3cc(F)c(C(=O)N4CCCC[C@@H]4c4ccc5c(c4)OC(F)(F)O5)cc3c21 [Example I-80]	2.2 nM	12.8 nM	0.9 nM	201 nM	4.7 nM	65 nM										
CC1OCc2c1c(N)nc1cc(F)c(C(=O)N3CCOC[C@@H]3c3ccc4c(c3)OC(F)(F)O4)cc21 (some centres unmarked) [Example I-34]	2.8 nM	70.8 nM	3.1 nM	1630 nM	9 nM	293 nM										
Cn1ncc2c(N)nc3cnc(C(=O)N4CCN(C5CC5)CC4c4ccc5c(c4)OC(F)(F)O5)cc3c21 (racemic) [Example I-112]			2.9 nM	> 10000 nM	57 nM	285 nM	1.17	0.22 µg/mL	0.258 µg/mL	0.346 µg/mL	1.57	3.05	0.0103 µg/mL	0.0313 µg/mL	0.093 µg/mL	9.05
CC1OCc2c1c(N)nc1cc(F)c(C(=O)N3CCOC[C@@H]3c3ccc4c(c3)OC(F)(F)O4)cc21 (single isomer, unassigned) [I-34 (PEAK2)]	1.3 nM	43.5 nM	1.1 nM	980 nM	8.3 nM	60.7 nM										
Cn1ncc2c(N)nc3cc(C#N)c(C(=O)N4CCOC[C@@H]4c4ccc5c(c4)OC(F)(F)O5)cc3c21 [Example I-53]	1 nM	15.5 nM	0.7 nM	210 nM	5.3 nM	68.7 nM										
CC1OCc2c1c(N)nc1cc(F)c(C(=O)N3C(c4ccc5c(c4)OC(F)(F)O5)COC[C@H]3C)cc21 (some centres unmarked) [Example I-39]	0.9 nM	18.5 nM	0.7 nM		2.5 nM											
